Experimental data as given in publication PMC11855827, “High-Throughput Screening of Five Compound Libraries for Anthelmintic Activity and Toxicity Leads to the Discovery of Two Flavonoid Compounds” (International Journal of Molecular Sciences, 2025).

System: C. elegans
Settings: Table S2, C. elegans SS assay, 110 μM, averages of 4 data points

SMILES	Percentage of motility inhibition 0 h [%]	Percentage of motility inhibition 24 h [%]
O.O.O.O.O=C([O-])CC(O)(CC(=O)[O-])C(=O)[O-].[Li+].[Li+].[Li+] [Lithium citrate (tetrahydrate)]	13	0
CN1[C@@H](CC(=O)c2ccccc2)CCC[C@H]1CC(=O)c1ccccc1 [Lobelanine]	0	5
CN1[C@@H](CC(=O)c2ccccc2)CCC[C@H]1C[C@H](O)c1ccccc1.Cl [Lobeline (hydrochloride)]	26	30
COC(=O)C1=CO[C@@H](O)[C@@H]2[C@@H](C)[C@@H](O)C[C@H]12 [Loganetin]	0	2
CCn1cc(C(=O)O)c(=O)c2cc(F)c(N3CCNC(C)C3)c(F)c21.Cl (centres unmarked) [Lomefloxacin (hydrochloride)]	39	0
CC[C@](C)(C#N)O[C@@H]1O[C@H](CO)[C@@H](O)[C@H](O)[C@H]1O [Lotaustralin]	11	20
COc1cc2c(cc1O)CC[N+](C)(C)[C@@H]2Cc1ccc(O)cc1.[OH-] [Lotusine (hydroxide)]	4	0
COc1ccc(CCC(=O)c2ccc(O)cc2)c(OC)c1 [Loureirin A]	11	0
COc1cc(OC)c(CCC(=O)c2ccc(O)cc2)c(OC)c1 [Loureirin B]	10	0
C[C@H](CCC(=O)O)[C@H]1CC(=O)[C@@]2(C)C3=C(C(=O)C[C@]12C)[C@@]1(C)CCC(=O)C(C)(C)[C@@H]1C[C@@H]3O [Lucideric acid A]	0	20
CC1(C)CC[C@]2(C(=O)O[C@@H]3O[C@H](CO)[C@@H](O)[C@H](O)[C@H]3O)CC[C@]3(C)C(=CC[C@@H]4[C@@]5(C)C[C@@H](O)[C@H](O[C@@H]6O[C@H](CO)[C@@H](O)[C@H](O)[C@H]6O)[C@@](C)(CO)[C@@H]5CC[C@]43C)[C@@H]2C1 [Lucyoside B]	9	4
C=C(C)[C@@H]1CC[C@]2(C)CC[C@]3(C)[C@H](CC[C@@H]4[C@@]5(C)CC[C@H](OC(C)=O)C(C)(C)[C@@H]5CC[C@]43C)[C@@H]12 [Lupeol acetate]	0	0
O=c1cc(-c2ccc(O)c(O)c2)oc2cc(O)cc(O[C@@H]3O[C@H](CO)[C@@H](O)[C@H](O)[C@H]3O)c12 [Luteolin 5‐O‐glucoside]	8	0
O=C(O)[C@H]1O[C@@H](Oc2cc(O)c3c(=O)cc(-c4ccc(O)c(O)c4)oc3c2)[C@H](O)[C@@H](O)[C@@H]1O [Luteolin 7‐O‐glucuronide]	22	45
O=C(O)[C@H]1O[C@@H](O[C@H]2[C@H](Oc3cc(O)c4c(=O)cc(-c5ccc(O)c(O)c5)oc4c3)O[C@H](C(=O)O)[C@@H](O)[C@@H]2O)[C@H](O)[C@@H](O)[C@@H]1O [Luteolin 7‐diglucuronide]	20	7
Oc1cc(O)c2ccc(-c3ccc(O)c(O)c3)[o+]c2c1.[Cl-] [Luteolinidin (chloride)]	29	8

SMILES	Percentage of motility inhibition 0 h [%]	Percentage of motility inhibition 24 h [%]
O=C(O)[C@H]1O[C@@H](Oc2cc(-c3cc(=O)c4c(O)cc(O)cc4o3)ccc2O)[C@H](O)[C@@H](O)[C@@H]1O [Luteolin‐3‐O‐beta‐D‐glucuronide]	0	26
Cl.O[C@H]1[C@H]2c3cc4c(cc3CN3CCC(=C[C@@H]1O)[C@H]23)OCO4 [Lycorine (hydrochloride)]	15	0
CN[C@@H](Cc1c[nH]c2ccccc12)C(=O)O [L‐(+)‐Abrine]	0	0
CN1[C@@H]2CC[C@H]1CC(OC(=O)[C@H](CO)c1ccccc1)C2.CN1[C@@H]2CC[C@H]1CC(OC(=O)[C@H](CO)c1ccccc1)C2.O=S(=O)(O)O (some centres unmarked) [L‐Hyoscyamine (sulfate)]	18	9
C[C@@H]1O[C@@H](O[C@H]2[C@H](O[C@H]3CC[C@@]4(C)[C@@H](CC[C@]5(C)[C@@H]4CC=C4[C@@H]6CC(C)(C)CC[C@]6(C(=O)O[C@@H]6O[C@H](CO[C@@H]7O[C@H](CO)[C@@H](O)[C@H](O)[C@H]7O)[C@@H](O)[C@H](O)[C@H]6O)CC[C@]45C)[C@]3(C)CO)OC[C@H](O)[C@@H]2O)[C@H](O)[C@H](O[C@@H]2O[C@H](CO)[C@@H](O)[C@H](O)[C@H]2O)[C@H]1O [Macranthoidin A]	1	1
C[C@@H]1O[C@@H](O[C@H]2[C@H](O[C@H]3CC[C@@]4(C)[C@@H](CC[C@]5(C)[C@@H]4CC=C4[C@@H]6CC(C)(C)CC[C@]6(C(=O)O[C@@H]6O[C@H](CO[C@@H]7O[C@H](CO)[C@@H](O)[C@H](O)[C@H]7O)[C@@H](O)[C@H](O)[C@H]6O)CC[C@]45C)[C@]3(C)CO)OC[C@H](O)[C@@H]2O)[C@H](O)[C@H](O[C@@H]2O[C@H](CO)[C@@H](O[C@@H]3O[C@H](CO)[C@@H](O)[C@H](O)[C@H]3O)[C@H](O)[C@H]2O)[C@H]1O [Macranthoidin B]	6	0
O=C1N[C@@H](Cc2ccc(O)cc2)C(=O)N2CCC[C@@H]12 [Maculosin]	0	0
CC(=O)O.NCc1ccc(S(N)(=O)=O)cc1 [Mafenide (Acetate)]	21	10
CC(=O)[O-].CC(=O)[O-].O.O.O.O.[Mg+2] [Magnesium acetate tetrahydrate]	2	0
CCOC(=O)c1c(C)n(C)c2ccc(O)cc12 [Mecarbinate]	38	36
CC1(C)CC[C@]2(C(=O)O)CC[C@]3(C)C(=CC[C@@H]4[C@@]5(C)C[C@H](O)[C@H](O)[C@@](C)(C(=O)O)[C@@H]5CC[C@]43C)[C@@H]2C1 [Medicagenic acid]	0	5
Cl.OC(c1cc(C(F)(F)F)nc2c(C(F)(F)F)cccc12)C1CCCCN1 (centres unmarked) [Mefloquine (hydrochloride)]	45	22
OCC1=C[C@@H](O)[C@]2(O[C@@H]3O[C@H](CO)[C@@H](O)[C@H](O)[C@H]3O)C=CO[C@@H](O[C@@H]3O[C@H](CO)[C@@H](O)[C@H](O)[C@H]3O)[C@H]12 [Melittoside]	0	4
CC1CCC(C(C)C)C(O)C1 (centres unmarked) [Menthol]	3	17
C[C@@H](O)[C@H]1C(=O)N2C(C(=O)O)=C(S[C@@H]3CN[C@H](C(=O)N(C)C)C3)[C@H](C)[C@H]12.O.O.O [Meropenem (trihydrate)]	12	9
